# Assay results taken from PubChem BioAssay AID1745844 (Carcinogenic Potency Database (CPDB), 2022).
# Active and inactive are the calls of the source. No rule for the calls is given here.
# System: rodent lifetime carcinogenesis bioassay, tumor incidence TD50
# Assay: chronic cancer bioassays in animals – CPDB, compiled studies (AID 1745844)
compound,measurement,setting,value
CCOC(N)=O,TD50,"hamster, strain Syrian Golden, females, in drinking water, site: adrenal gland, lesion: cortical carcinoma, dosed 90 weeks, study length 90 weeks",349 mg/kg/day
same,TD50,"hamster, strain Syrian Golden, females, in drinking water, site: adrenal gland, lesion: several types, types named in the paper, dosed 90 weeks, study length 90 weeks",318 mg/kg/day
same,TD50,"hamster, strain Syrian Golden, females, in drinking water, site: cecum, lesion: adenomatous polyp, dosed 90 weeks, study length 90 weeks",294 mg/kg/day
same,TD50,"hamster, strain Syrian Golden, females, in drinking water, site: dermis, lesion: melanocytoma, dosed 90 weeks, study length 90 weeks",74.4 mg/kg/day
same,TD50,"hamster, strain Syrian Golden, females, in drinking water, site: forestomach, lesion: carcinoma, dosed 90 weeks, study length 90 weeks",374 mg/kg/day
same,TD50,"hamster, strain Syrian Golden, females, in drinking water, site: forestomach, lesion: papilloma, dosed 55 weeks, study length 55 weeks",102 mg/kg/day
same,TD50,"hamster, strain Syrian Golden, females, in drinking water, site: forestomach, lesion: papilloma, dosed 90 weeks, study length 90 weeks",44.5 mg/kg/day
same,TD50,"hamster, strain Syrian Golden, females, in drinking water, site: gall bladder, lesion: papilloma, dosed 90 weeks, study length 90 weeks",682 mg/kg/day
same,TD50,"hamster, strain Syrian Golden, females, in drinking water, site: lung, lesion: adenoma, dosed 90 weeks, study length 90 weeks",1360 mg/kg/day
same,TD50,"hamster, strain Syrian Golden, females, in drinking water, site: ovary, lesion: carcinoma, dosed 90 weeks, study length 90 weeks",682 mg/kg/day
same,TD50,"hamster, strain Syrian Golden, females, in drinking water, site: skin, lesion: melanotic tumor, dosed 55 weeks, study length 55 weeks",496 mg/kg/day
same,TD50,"hamster, strain Syrian Golden, females, in drinking water, site: thyroid gland, lesion: several types, types named in the paper, dosed 90 weeks, study length 90 weeks",538 mg/kg/day
same,TD50,"hamster, strain Syrian Golden, females, in drinking water, site: vagina, lesion: carcinoma, dosed 90 weeks, study length 90 weeks",314 mg/kg/day
same,TD50,"hamster, strain Syrian Golden, males, in drinking water, site: adrenal gland, lesion: cortical adenoma, dosed 103 weeks, study length 103 weeks",564 mg/kg/day
same,TD50,"hamster, strain Syrian Golden, males, in drinking water, site: cecum, lesion: adenomatous polyp, dosed 103 weeks, study length 103 weeks",765 mg/kg/day
same,TD50,"hamster, strain Syrian Golden, males, in drinking water, site: dermis, lesion: melanocytoma, dosed 103 weeks, study length 103 weeks",109 mg/kg/day
same,TD50,"hamster, strain Syrian Golden, males, in drinking water, site: forestomach, lesion: carcinoma, dosed 103 weeks, study length 103 weeks",135 mg/kg/day
same,TD50,"hamster, strain Syrian Golden, males, in drinking water, site: forestomach, lesion: papilloma, dosed 76 weeks, study length 76 weeks",95.8 mg/kg/day
same,TD50,"hamster, strain Syrian Golden, males, in drinking water, site: forestomach, lesion: papilloma, dosed 103 weeks, study length 103 weeks",64.2 mg/kg/day
same,TD50,"hamster, strain Syrian Golden, males, in drinking water, site: liver, lesion: several types, types named in the paper, dosed 103 weeks, study length 103 weeks",1280 mg/kg/day
same,TD50,"hamster, strain Syrian Golden, males, in drinking water, site: lung, lesion: adenoma, dosed 103 weeks, study length 103 weeks",927 mg/kg/day
same,TD50,"hamster, strain Syrian Golden, males, in drinking water, site: skin, lesion: melanotic tumor, dosed 76 weeks, study length 76 weeks",74.2 mg/kg/day
same,TD50,"monkey, strain Cynomolgus [Macaca fascicularis], both sexes, in feed, site: any site (literature study), lesion: benign tumor, dosed 258 weeks, study length 1208 weeks",128 mg/kg/day
same,TD50,"monkey, strain Cynomolgus [Macaca fascicularis], both sexes, in feed, site: any site (literature study), lesion: malignant tumor, dosed 258 weeks, study length 1208 weeks",21.5 mg/kg/day
same,TD50,"monkey, strain Cynomolgus [Macaca fascicularis], both sexes, in feed, site: any site (literature study), lesion: several types, types named in the paper, dosed 258 weeks, study length 1208 weeks",25.5 mg/kg/day
same,TD50,"monkey, strain Cynomolgus [Macaca fascicularis], both sexes, in feed, site: liver, lesion: hemangiosarcoma, dosed 258 weeks, study length 1208 weeks",95 mg/kg/day
same,TD50,"monkey, strain Cynomolgus [Macaca fascicularis], both sexes, in feed, site: liver, lesion: hepatocellular adenoma, dosed 258 weeks, study length 1208 weeks",31.7 mg/kg/day
same,TD50,"monkey, strain Cynomolgus [Macaca fascicularis], both sexes, in feed, site: lung, lesion: bronchogenic carcinoma, dosed 258 weeks, study length 1208 weeks",31.7 mg/kg/day
same,TD50,"monkey, strain Cynomolgus [Macaca fascicularis], both sexes, in feed, site: pancreas, lesion: adenocarcinoma, dosed 258 weeks, study length 1208 weeks",52.8 mg/kg/day
same,TD50,"monkey, strain Cynomolgus [Macaca fascicularis], both sexes, in feed, site: several sites, pooled by Berkeley, lesion: several types, pooled by Berkeley, dosed 258 weeks, study length 1208 weeks",16.4 mg/kg/day
same,TD50,"monkey, strain Rhesus [Macaca mulatta], both sexes, in feed, site: adrenal gland, lesion: pheochromocytoma, dosed 258 weeks, study length 1281 weeks",117 mg/kg/day
same,TD50,"monkey, strain Rhesus [Macaca mulatta], both sexes, in feed, site: any site (literature study), lesion: benign tumor, dosed 258 weeks, study length 1281 weeks",75.9 mg/kg/day
same,TD50,"monkey, strain Rhesus [Macaca mulatta], both sexes, in feed, site: any site (literature study), lesion: malignant tumor, dosed 258 weeks, study length 1281 weeks",52.9 mg/kg/day
same,TD50,"monkey, strain Rhesus [Macaca mulatta], both sexes, in feed, site: any site (literature study), lesion: several types, types named in the paper, dosed 258 weeks, study length 1281 weeks",26.3 mg/kg/day
same,TD50,"monkey, strain Rhesus [Macaca mulatta], both sexes, in feed, site: cheek pouch, lesion: squamous-cell papilloma, dosed 258 weeks, study length 1281 weeks",75.5 mg/kg/day
same,TD50,"monkey, strain Rhesus [Macaca mulatta], both sexes, in feed, site: jejunum, lesion: adenocarcinoma, dosed 258 weeks, study length 1281 weeks",65.2 mg/kg/day
same,TD50,"monkey, strain Rhesus [Macaca mulatta], both sexes, in feed, site: liver, lesion: hemangiosarcoma, dosed 258 weeks, study length 1281 weeks",143 mg/kg/day
same,TD50,"monkey, strain Rhesus [Macaca mulatta], both sexes, in feed, site: liver, lesion: hepatocellular carcinoma, dosed 258 weeks, study length 1281 weeks",143 mg/kg/day
same,TD50,"monkey, strain Rhesus [Macaca mulatta], both sexes, in feed, site: several sites, pooled by Berkeley, lesion: several types, pooled by Berkeley, dosed 258 weeks, study length 1281 weeks",44.8 mg/kg/day
same,TD50,"mouse, strain B6AKF1, females, oral dosing, site: Harderian gland, lesion: adenoma, dosed 73 weeks, study length 73 weeks",59.7 mg/kg/day
same,TD50,"mouse, strain B6AKF1, females, oral dosing, site: all sites, lesion: angioma, dosed 73 weeks, study length 73 weeks",31.7 mg/kg/day
same,TD50,"mouse, strain B6AKF1, females, oral dosing, site: any site (literature study), lesion: several types, types named in the paper, dosed 73 weeks, study length 73 weeks",9.73 mg/kg/day
same,TD50,"mouse, strain B6AKF1, females, oral dosing, site: liver, lesion: hepatoma, dosed 73 weeks, study length 73 weeks",89.9 mg/kg/day
same,TD50,"mouse, strain B6AKF1, females, oral dosing, site: lung, lesion: adenoma, dosed 73 weeks, study length 73 weeks",29.3 mg/kg/day
same,TD50,"mouse, strain B6AKF1, females, oral dosing, site: lung, lesion: carcinoma, dosed 73 weeks, study length 73 weeks",89.9 mg/kg/day
same,TD50,"mouse, strain B6AKF1, females, oral dosing, site: lung, lesion: several types, types named in the paper, dosed 73 weeks, study length 73 weeks",12.5 mg/kg/day
same,TD50,"mouse, strain B6AKF1, males, oral dosing, site: Harderian gland, lesion: adenoma, dosed 72 weeks, study length 72 weeks",35.8 mg/kg/day
same,TD50,"mouse, strain B6AKF1, males, oral dosing, site: all sites, lesion: reticulum-cell sarcoma, dosed 72 weeks, study length 72 weeks",77.9 mg/kg/day
same,TD50,"mouse, strain B6AKF1, males, oral dosing, site: any site (literature study), lesion: several types, types named in the paper, dosed 72 weeks, study length 72 weeks",11.2 mg/kg/day
same,TD50,"mouse, strain B6AKF1, males, oral dosing, site: liver, lesion: hepatoma, dosed 72 weeks, study length 72 weeks",39 mg/kg/day
same,TD50,"mouse, strain B6AKF1, males, oral dosing, site: liver, lesion: several types, types named in the paper, dosed 72 weeks, study length 72 weeks",26 mg/kg/day
same,TD50,"mouse, strain B6AKF1, males, oral dosing, site: lung, lesion: adenoma, dosed 72 weeks, study length 72 weeks",27.8 mg/kg/day
same,TD50,"mouse, strain B6AKF1, males, oral dosing, site: lung, lesion: several types, types named in the paper, dosed 72 weeks, study length 72 weeks",24.2 mg/kg/day
same,TD50,"mouse, strain B6C3F1, females, oral dosing, site: any site (literature study), lesion: several types, types named in the paper, dosed 68 weeks, study length 68 weeks",13.7 mg/kg/day
same,TD50,"mouse, strain B6C3F1, females, oral dosing, site: liver, lesion: hepatoma, dosed 68 weeks, study length 68 weeks",55.9 mg/kg/day
same,TD50,"mouse, strain B6C3F1, females, oral dosing, site: liver, lesion: several types, types named in the paper, dosed 68 weeks, study length 68 weeks",32.4 mg/kg/day
same,TD50,"mouse, strain B6C3F1, females, oral dosing, site: lung, lesion: adenoma, dosed 68 weeks, study length 68 weeks",97.4 mg/kg/day
same,TD50,"mouse, strain B6C3F1, females, oral dosing, site: lung, lesion: several types, types named in the paper, dosed 68 weeks, study length 68 weeks",79 mg/kg/day
same,TD50,"mouse, strain B6C3F1, males, in drinking water, site: heart, lesion: hemangiosarcoma, dosed 65 weeks, study length 70 weeks",417 mg/kg/day
same,TD50,"mouse, strain B6C3F1, males, in drinking water, site: liver, lesion: hemangioma, dosed 65 weeks, study length 70 weeks",63.3 mg/kg/day
same,TD50,"mouse, strain B6C3F1, males, in drinking water, site: liver, lesion: hemangiosarcoma, dosed 65 weeks, study length 70 weeks",122 mg/kg/day
same,TD50,"mouse, strain B6C3F1, males, in drinking water, site: liver, lesion: hepatocellular adenoma, dosed 65 weeks, study length 70 weeks",38.2 mg/kg/day
same,TD50,"mouse, strain B6C3F1, males, in drinking water, site: lung, lesion: alveolar/bronchiolar adenoma, dosed 65 weeks, study length 70 weeks",5.91 mg/kg/day
same,TD50,"mouse, strain B6C3F1, males, in drinking water, site: lung, lesion: alveolar/bronchiolar carcinoma, dosed 65 weeks, study length 70 weeks",242 mg/kg/day
same,TD50,"mouse, strain B6C3F1, males, in drinking water, site: lung, lesion: several types, types named in the paper, dosed 65 weeks, study length 70 weeks",5.91 mg/kg/day
same,TD50,"mouse, strain B6C3F1, males, oral dosing, site: any site (literature study), lesion: several types, types named in the paper, dosed 70 weeks, study length 70 weeks",22.4 mg/kg/day
same,TD50,"mouse, strain B6C3F1, males, oral dosing, site: liver, lesion: hepatoma, dosed 70 weeks, study length 70 weeks",81.7 mg/kg/day
same,TD50,"mouse, strain B6C3F1, males, oral dosing, site: liver, lesion: several types, types named in the paper, dosed 70 weeks, study length 70 weeks",46 mg/kg/day
same,TD50,"mouse, strain B6C3F1, males, oral dosing, site: lung, lesion: adenoma, dosed 70 weeks, study length 70 weeks",81.7 mg/kg/day
same,TD50,"mouse, strain B6C3F1, males, oral dosing, site: lung, lesion: several types, types named in the paper, dosed 70 weeks, study length 70 weeks",65.9 mg/kg/day
same,TD50,"mouse, strain CF-1, females, in drinking water, site: any site (literature study), lesion: several types, types named in the paper, dosed 133 weeks, study length 133 weeks",23.3 mg/kg/day
same,carcinogen call,"mouse, strain CF-1, females, in drinking water, site: liver, lesion: hepatoma, dosed 133 weeks, study length 133 weeks",negative (inactive)
same,TD50,"mouse, strain CF-1, females, in drinking water, site: lung, lesion: one or several types, types not named, dosed 133 weeks, study length 133 weeks",23.8 mg/kg/day
same,TD50,"mouse, strain CF-1, males, in drinking water, site: any site (literature study), lesion: several types, types named in the paper, dosed 125 weeks, study length 125 weeks",12.1 mg/kg/day
same,carcinogen call,"mouse, strain CF-1, males, in drinking water, site: liver, lesion: hepatoma, dosed 125 weeks, study length 125 weeks",negative (inactive)
same,TD50,"mouse, strain CF-1, males, in drinking water, site: lung, lesion: one or several types, types not named, dosed 125 weeks, study length 125 weeks",13.2 mg/kg/day
same,TD50,"mouse, strain NMRI, both sexes, in drinking water, site: any site (literature study), lesion: benign tumor, dosed 101 weeks, study length 104 weeks",0.434 mg/kg/day
same,TD50,"mouse, strain NMRI, both sexes, in drinking water, site: any site (literature study), lesion: malignant tumor, dosed 101 weeks, study length 104 weeks",14.7 mg/kg/day
same,TD50,"mouse, strain Swiss, both sexes, in feed, site: lung, lesion: adenocarcinoma, dosed 116 weeks, study length 116 weeks",5060 mg/kg/day
same,TD50,"mouse, strain Swiss, both sexes, in feed, site: lung, lesion: adenoma, dosed 116 weeks, study length 116 weeks",36.1 mg/kg/day
same,TD50,"rat, strain Sprague-Dawley, both sexes, in drinking water, site: any site (literature study), lesion: benign tumor, dosed 97 weeks, study length 104 weeks",91.2 mg/kg/day
same,TD50,"rat, strain Sprague-Dawley, both sexes, in drinking water, site: any site (literature study), lesion: malignant tumor, dosed 97 weeks, study length 104 weeks",41.3 mg/kg/day
